What follows are molecules tested against T1, human CCR6 (Homo sapiens, UniProt P51684) (assay: FLIPR assay (inhibition of CCL20-induced calcium signal)). Conditions: HEK-293 cells expressing human CCR6; mean values where determined several times; read-out: FLIPR IC50.
T1 construct: expressed in transfected cells; host or cells: HEK-293
T1 sequence (P51684 1-374): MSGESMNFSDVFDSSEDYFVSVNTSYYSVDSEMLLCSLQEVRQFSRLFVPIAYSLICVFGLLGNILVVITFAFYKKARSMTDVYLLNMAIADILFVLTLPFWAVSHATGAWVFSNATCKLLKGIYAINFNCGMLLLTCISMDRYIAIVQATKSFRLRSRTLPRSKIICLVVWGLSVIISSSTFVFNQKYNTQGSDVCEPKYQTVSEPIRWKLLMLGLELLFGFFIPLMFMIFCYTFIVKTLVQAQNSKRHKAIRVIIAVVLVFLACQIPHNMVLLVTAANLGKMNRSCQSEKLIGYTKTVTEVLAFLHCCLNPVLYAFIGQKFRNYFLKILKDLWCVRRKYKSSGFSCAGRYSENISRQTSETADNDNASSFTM
Format: cell-based
Protocol: FLIPR assay: The bioactivity of compounds is tested in a fluorometric imaging plate reader (FLIPR: Molecular Devices) using engineered HEK-293 cells expressing the human CCR6 (GenBank: AY242126). Frozen cells are plated on Poly-L-Lysine precoated 384-well plates 2 days prior to bioassay in DMEM medium supplemented with 10% FCS and 1% Penicillin-Streptomycin. […] This buffer, but lacking the dye, is also used for washing and compound dilution steps (assay buffer). Cells are washed free of excess dye with a wash-station (Biotek), leaving 40 microliter of assay buffer at the end. Cells were incubated for 15 minutes at room temperature in the dark, before adding compounds. Stock solutions of test compounds are made up at a concentration of 10 mM in DMSO, and serially diluted first in DMSO and then transferred in assay buffer to concentrations required for inhibition dose response curves. After a 45-minute incubation period in assay buffer at room temperature, 10 microliters of each compound dilution are transferred from a compound plate to the plate containing the recombinant cells in the FLIPR instrument according to the manufacturer's instructions. After cells and compounds were preincubated for 30 minutes at room temperature in the dark, 10 microliter agonist CCL20 (Peprotech) at a final concentration of 10 nM is added, again using the FLIPR instrument. Changes in fluorescence are monitored before and after addition of the test compounds and agonist. Emission peak values above base level after CCL20 addition are exported after base line subtraction.
The calculated IC50 values may fluctuate depending on the daily assay performance. Fluctuations of this kind are known to those skilled in the art.

| Compound | IC50 |
| --- | --- |
| CC(C)c1ccc([C@](O)(c2cncc(N3CC4OCCC4C3=O)c2)C2(C)CN(C)C2)cc1 (mixture of isomers) [Example 210] | 326 nM |
| CC(=O)N1CC[C@H](c2nc(-c3cncc([C@@](O)(c4ccc(C(C)C)cc4)C4(C)CN(C)C4)c3)no2)[C@H](C)C1 (mixture of isomers) [Example 478, 1-[cis-4-(3-{5-[(R)-(1,3-Dimethyl-azetidin-3-yl)-hydroxy-(4-isopropyl-phenyl)-methyl]-pyridin-3-yl}-[1,2,4]oxadiazol-5-yl)-3-methyl-piperidin-1-yl]-ethanone] | 88.9 nM |
| CC(C)c1ccc([C@](O)(c2cncc(N3C[C@H](C(C)(C)C)OC3=O)c2)C2(C)CN(C)C2)cc1 (single isomer, unassigned) [Example 167] | 66.9 nM |
| CC(C)c1ccc([C@](O)(c2cncc([C@@H]3CCC(C)(O)C3)c2)C2(C)CN(C)C2)cc1 (single isomer, unassigned) [Example 297] | 93.5 nM |
| CC(C)c1ccc([C@](O)(c2cncc(-c3noc(C4(C)CC(=O)N(C)C4)n3)c2)C2(C)CN(C)C2)cc1 (single isomer, unassigned) [Example 365] | 147 nM |
| CC(C)c1ccc([C@](O)(c2cncc(-c3noc(C4(C)CC(=O)N(C)C4)n3)c2)C2(C)CN(C)C2)cc1 (single isomer, unassigned) [Example 366] | 165 nM |
| Cc1cc(C(C)(O)C#Cc2cncc([C@@](O)(c3ccc(C(C)C)cc3)C3(C)CN(C)C3)c2)nn1C (single isomer, unassigned) [Example 401] | 117 nM |
| Cc1cc(C(C)(O)C#Cc2cncc([C@@](O)(c3ccc(C(C)C)cc3)C3(C)CN(C)C3)c2)nn1C (single isomer, unassigned) [Example 402] | 88.3 nM |
| CC(C)c1ccc([C@](O)(c2cncc(C#CC(C)(O)c3ccn(C)n3)c2)C2(C)CN(C)C2)cc1 (single isomer, unassigned) [Example 404] | 164 nM |
| CC(C)c1ccc([C@](O)(c2cncc(C#CC(C)(O)c3ccn(C)n3)c2)C2(C)CN(C)C2)cc1 (single isomer, unassigned) [Example 405] | 102 nM |
| CC(C)c1ccc([C@](O)(c2cncc(-c3noc(C4CC(=O)N(C)C4)n3)c2)C2(C)CN(C)C2)cc1 (single isomer, unassigned) [Example 509] | 208 nM |
| CCN1CC(c2nc(-c3cncc([C@@](O)(c4ccc(C(C)C)cc4)C4(C)CN(C)C4)c3)no2)CC1=O (single isomer, unassigned) [Example 510] | 184 nM |
| CCN1CC(c2nc(-c3cncc([C@@](O)(c4ccc(C(C)C)cc4)C4(C)CN(C)C4)c3)no2)CC1=O (single isomer, unassigned) [Example 511] | 133 nM |
| CC(C)c1ccc([C@](O)(c2cncc(-c3noc(C4CC(=O)N(C(C)C)C4)n3)c2)C2(C)CN(C)C2)cc1 (single isomer, unassigned) [Example 512] | 61.1 nM |
| CC(C)c1ccc([C@](O)(c2cncc(-c3noc(C4CC(=O)N(C(C)C)C4)n3)c2)C2(C)CN(C)C2)cc1 (single isomer, unassigned) [Example 513] | 101 nM |
| CN1CC(F)(C(O)(c2ccc(OC(F)(F)F)cc2)c2cncc(N3CCCC3)c2)C1 (centres unmarked) [Example 1, (3-Fluoro-1-methyl-azetidin-3-yl)-(5-pyrrolidin-1-yl-pyridin-3-yl)-(4-trifluoromethoxy-phenyl)-methanol] | 114 nM |
| CN1CC(C#N)(C(O)(c2ccc(OC(F)(F)F)cc2)c2cncc(N3CCCC3)c2)C1 (centres unmarked) [Example 2, 3-[Hydroxy-(5-pyrrolidin-1-yl-pyridin-3-yl)-(4-trifluoromethoxy-phenyl)-methyl]-1-methyl-azetidine-3-carbonitrile] | 147 nM |
| CCN1CC(C)([C@](O)(c2ccc(OC(F)(F)F)cc2)c2cncc(N3CCCC3)c2)C1 [Example 3, (R)-(1-Ethyl-3-methyl-azetidin-3-yl)-(5-pyrrolidin-1-yl-pyridin-3-yl)-(4-trifluoromethoxy-phenyl)-methanol] | 28 nM |
| CCCN1CC(C)([C@](O)(c2ccc(OC(F)(F)F)cc2)c2cncc(N3CCCC3)c2)C1 [Example 4] | 36.2 nM |
| CC(C)N1CC(C)([C@](O)(c2ccc(OC(F)(F)F)cc2)c2cncc(N3CCCC3)c2)C1 [Example 5] | 33.3 nM |
| CC1([C@](O)(c2ccc(OC(F)(F)F)cc2)c2cncc(N3CCCC3)c2)CN(CC2CC2)C1 [Example 6] | 47.2 nM |
| CC1([C@](O)(c2ccc(OC(F)(F)F)cc2)c2cncc(N3CCCC3)c2)CN(C2CCC2)C1 [Example 7] | 54.3 nM |
| CC(C)CN1CC(C)([C@](O)(c2ccc(OC(F)(F)F)cc2)c2cncc(N3CCCC3)c2)C1 [Example 8] | 110 nM |
| CC1([C@](O)(c2ccc(OC(F)(F)F)cc2)c2cncc(N3CCCC3)c2)CN(C2CC2)C1 [Example 9, (R)-(1-Cyclopropyl-3-methyl-azetidin-3-yl)-(5-pyrrolidin-1-yl-pyridin-3-yl)-(4-trifluoromethoxy-phenyl)-methanol] | 74.7 nM |
| CC1([C@](O)(c2ccc(OC(F)(F)F)cc2)c2cncc(N3CCCC3)c2)CN(CCF)C1 [Example 10, (R)-[1-(2-Fluoro-ethyl)-3-methyl-azetidin-3-yl]-(5-pyrrolidin-1-yl-pyridin-3-yl)-(4-trifluoromethoxy-phenyl)-methanol] | 64.1 nM |
| CC1([C@](O)(c2ccc(OC(F)(F)F)cc2)c2cncc(N3CCCC3)c2)CN(CC(F)F)C1 [Example 11, (R)-[1-(2,2-Difluoro-ethyl)-3-methyl-azetidin-3-yl]-(5-pyrrolidin-1-yl-pyridin-3-yl)-(4-trifluoromethoxy-phenyl)-methanol] | 130 nM |

Second part, the molecule after the results:

| IC50 | Compound |
| --- | --- |
| 181 nM | CC(C)c1ccc([C@](O)(c2cncc(-c3noc(C4CCNC(=O)C4)n3)c2)C2(C)CN(C)C2)cc1 (single isomer, unassigned) [Example 515] |
| 104 nM | CC(C)c1ccc([C@](O)(c2cncc(-c3noc(C4CCNC(=O)C4)n3)c2)C2(C)CN(C)C2)cc1 (single isomer, unassigned) [Example 516] |
| 55.3 nM | COc1cc(C(C)(O)C#Cc2cncc([C@@](O)(c3ccc(C(C)C)cc3)C3(C)CN(C)C3)c2)ncn1 (single isomer, unassigned) [Example 620] |
| 105 nM | COc1cc(C(C)(O)C#Cc2cncc([C@@](O)(c3ccc(C(C)C)cc3)C3(C)CN(C)C3)c2)ncn1 (single isomer, unassigned) [Example 622] |
| 44.9 nM | COc1nccc(C(C)(O)C#Cc2cncc([C@@](O)(c3ccc(C(C)C)cc3)C3(C)CN(C)C3)c2)n1 (single isomer, unassigned) [Example 623] |
| 81.8 nM | COc1nccc(C(C)(O)C#Cc2cncc([C@@](O)(c3ccc(C(C)C)cc3)C3(C)CN(C)C3)c2)n1 (single isomer, unassigned) [Example 624] |
| 107 nM | Cc1cc(C(C)(O)C#Cc2cncc([C@@](O)(c3ccc(C(C)C)cc3)C3(C)CN(C)C3)c2)nc(C)n1 (single isomer, unassigned) [Example 625] |
| 111 nM | Cc1cc(C(C)(O)C#Cc2cncc([C@@](O)(c3ccc(C(C)C)cc3)C3(C)CN(C)C3)c2)nc(C)n1 (single isomer, unassigned) [Example 626] |
| 11.5 nM | COc1cc(C(C)(O)C#Cc2cncc([C@@](O)(c3ccc(C(C)C)cc3)C3(C)CN(C)C3)c2)nc(OC)n1 (single isomer, unassigned) [Example 627] |
| 20.2 nM | COc1cc(C(C)(O)C#Cc2cncc([C@@](O)(c3ccc(C(C)C)cc3)C3(C)CN(C)C3)c2)nc(OC)n1 (single isomer, unassigned) [Example 628] |
| 60.9 nM | COc1nc(C)cc(C(C)(O)C#Cc2cncc([C@@](O)(c3ccc(C(C)C)cc3)C3(C)CN(C)C3)c2)n1 (single isomer, unassigned) [Example 629] |
| 61.1 nM | COc1cc(C(C)(O)C#Cc2cncc([C@@](O)(c3ccc(C(C)C)cc3)C3(C)CN(C)C3)c2)nc(C)n1 (single isomer, unassigned) [Example 630] |
| 79.5 nM | COc1cc(C(C)(O)C#Cc2cncc([C@@](O)(c3ccc(C(C)C)cc3)C3(C)CN(C)C3)c2)nc(C)n1 (single isomer, unassigned) [Example 631] |
| 10.9 nM | CC(C)c1ccc([C@](O)(c2cncc(C#CC(C)(O)c3ccnc(C(F)(F)F)n3)c2)C2(C)CN(C)C2)cc1 (single isomer, unassigned) [Example 652] |
| 10.1 nM | CC(C)c1ccc([C@](O)(c2cncc(C#CC(C)(O)c3ccnc(C(F)(F)F)n3)c2)C2(C)CN(C)C2)cc1 (single isomer, unassigned) [Example 653] |
